From ChEMBL document CHEMBL4270639, “Design of PPAR-γ agonist based on algal metabolites and the endogenous ligand 15-deoxy-Δ12, 14-prostaglandin J2” (Eur J Med Chem, 2018)
Calls of active or inactive are those of the source. No cut-off for these calls is given here.

Biological target: T1, Peroxisome proliferator-activated receptor gamma (Homo sapiens) (UniProt P37231)
T1 sequence (whole entry): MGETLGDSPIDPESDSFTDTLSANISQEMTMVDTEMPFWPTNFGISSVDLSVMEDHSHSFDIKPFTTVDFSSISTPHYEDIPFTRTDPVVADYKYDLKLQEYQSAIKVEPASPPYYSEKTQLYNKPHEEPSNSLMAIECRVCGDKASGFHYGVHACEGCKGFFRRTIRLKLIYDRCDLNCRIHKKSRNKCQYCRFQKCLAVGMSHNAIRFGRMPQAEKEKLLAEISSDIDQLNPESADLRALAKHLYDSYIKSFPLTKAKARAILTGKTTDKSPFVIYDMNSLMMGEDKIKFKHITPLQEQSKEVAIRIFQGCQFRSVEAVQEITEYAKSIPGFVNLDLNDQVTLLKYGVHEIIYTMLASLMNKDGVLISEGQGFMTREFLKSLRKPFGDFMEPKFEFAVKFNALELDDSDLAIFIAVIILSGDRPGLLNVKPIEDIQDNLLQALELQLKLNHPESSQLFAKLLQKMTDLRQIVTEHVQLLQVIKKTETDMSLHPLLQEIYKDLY
Assay: Transactivation of full length human FLAG-tagged PPARgamma1 LBD expressed in rat Ac2F cells at 5 to 10 uM after 6 hrs by luciferase reporter gene assay
Type: cell-based

| Activity | Structure (SMILES) |
| --- | --- |
| inactive | COC(=O)CC1CCC(=O)C1=CC(C)c1ccccc1 (stereo not drawn) |
| inactive | COC(=O)CC1CCC(=O)/C1=C\CCc1ccccc1 (stereo not drawn) |
| inactive | CCCCCCC=C1C(=O)CCC1CC(=O)OC (stereo not drawn) |
| Active | CCOC(=O)C[C@@H]1CCC(=O)/C1=C/C1CCCCC1 |
| inactive | COC(=O)CC1CCC(=O)C1CC1CCCCC1 (stereo not drawn) |
| inactive | CCCCCCCC=C1C(=O)CCC1CC(=O)OC (stereo not drawn) |
| inactive | CCCC=C1C(=O)CCC1CC(=O)OC (stereo not drawn) |
| Active | CCCCC(C=C1C(=O)CCC1CC(=O)OC)CC (stereo not drawn) |
| Active | CCOC(=O)C[C@H]1CCC(=O)/C1=C/C1CCCCC1 |
| Active | CCOC(=O)CC1CCC(=O)/C1=C/C1CCCCC1 (stereo not drawn) |
| Active | COC(=O)CC1CCC(=O)C1=CC1CCCCC1 (stereo not drawn) |
| Active | COC(=O)CC1CCC(=O)/C1=C/C1CCCCC1 (stereo not drawn) |
| Active | O=C(O)CC1CCC(=O)/C1=C/C1CCCCC1 (stereo not drawn) |
| inactive | CCC=C1C(=O)CCC1CC(=O)OC (stereo not drawn) |
| inactive | CCCCC=C1C(=O)CCC1CC(=O)OC (stereo not drawn) |
| Active | COC(=O)CC1CCC(=O)C1=CCc1ccccc1 (stereo not drawn) |
| Active | COC(=O)CC1CCC(=O)C1=CC1CCCC1 (stereo not drawn) |
| Active | COC(=O)CC1CCC(=O)C1=CC(OC)OC (stereo not drawn) |
| inactive | COC(=O)CC1CCC(=O)/C1=C/CCc1ccccc1 (stereo not drawn) |
| inactive | CCCCCCCCC=C1C(=O)CCC1CC(=O)OC (stereo not drawn) |
| Active | COC(=O)CC1CCC(=O)C1=CCC(C)C (stereo not drawn) |
| inactive | COC(=O)CC1CCC(=O)C1=CC(c1ccccc1)c1ccccc1 (stereo not drawn) |

Tested on: not listed separately
Assay: Cytotoxicity against rat Ac2F cells assessed as decrease in cell viability after 24 hrs by WST assay
Type: cell-based

| Structure (SMILES) | Activity |
| --- | --- |
| COC(=O)CC1CCC(=O)C1=CC1CCCCC1 (stereo not drawn) | Non-Toxic |
